Assay results reported in ChEMBL document CHEMBL6177973, “A Novel Compound 3a-M1, from Metabolites of Sinomenine Derivative 3a, Exerts Potent Anti-Aplastic Anemia Activity via IP3R/ORAI-Mediated CTL Ferroptosis” (J Med Chem, 2025).
Activity calls are given as the source filed them. The rule behind the calls is not given here.

Columns and labels:
[1] = Drug metabolism in rat plasma assessed as double hydrolyzation/double hydroxylation-mediated metabolite formation at 50 mg/kg, po measured for 24 hrs by HRMS analysis; type: ADME, organism-based; details: in vivo
[2] = Drug metabolism in mouse blood assessed as (4bR,9S)-1-(hydroxymethyl)-3,7-dimethoxy-11-methyl-6-oxo-6,8a,9,10-tetrahydro-5H-9,4b-(epiminoethano)phenanthren-4-yl cinnamate metabolite formation at 50 mg/kg, po measured for 0.083 to 8 hrs by HPLC analysis; type: ADME, organism-based; details: in vivo, time 0.083-8 hrs
[3] = Drug metabolism in mouse spleen assessed as (4bR,9S)-1-(hydroxymethyl)-3,7-dimethoxy-11-methyl-6-oxo-6,8a,9,10-tetrahydro-5H-9,4b-(epiminoethano)phenanthren-4-yl cinnamate metabolite formation at 50 mg/kg, po measured for 0.083 to 8 hrs by HPLC analysis; type: ADME, organism-based; details: in vivo, time 0.083-8 hrs
[4] = Stability in mouse bone marrow assessed as compound remaining at 50 mg/kg, po measured for 0.083 to 8 hrs by HPLC analysis; type: ADME, organism-based; details: in vivo, time 0.083-8 hrs
[5] = Stability in mouse thymus assessed as compound remaining at 50 mg/kg, po measured for 0.083 to 8 hrs by HPLC analysis; type: ADME, organism-based; details: in vivo, time 0.083-8 hrs
[6] = Stability in mouse liver assessed as compound remaining at 50 mg/kg, po measured for 0.083 to 8 hrs by HPLC analysis; type: ADME, organism-based; details: in vivo, time 0.083-8 hrs
[7] = Acute toxicity in 12 hr-fasted KM mouse assessed as abnormalities in animal at 10 g/kg, po administered as single dose measured for 14 days; type: organism-based; details: in vivo, 10000 mg/kg, 336 h, time 14 day
Mus musculus [8] = assay: Anti-aplastic anemia activity in BALB/c mouse model of immune-mediated bone marrow failure assessed as increase in hemoglobin level at 10 mg/kg, po treated for 14 days; type: functional, organism-based; details: time 14.0 day
Mus musculus [9] = assay: Anti-aplastic anemia activity in BALB/c mouse model of immune-mediated bone marrow failure assessed as restoration of nucleated to red blood cell ratio in bone marrow at 10 mg/kg, po treated for 14 days by H and E staining based analysis; type: functional, organism-based; details: time 14.0 day
Mus musculus [10] = assay: Anti-aplastic anemia activity in C57BL/6J mouse model of immune-mediated bone marrow failure assessed as increase in body weight at 5 to 15 mg/kg, IG qd treated for 21 days; type: functional, organism-based; details: dose 5-15 mg/kg, time 21.0 day
CD8-positive T cell [11] = assay: Inhibition of CD3/CD28-activated CD8-positive T cell activation in BALB/c mouse lymph nodes assessed as decrease in IFN-gamma level at 1 to 10 uM incubated for 72 hrs by ELISA; type: functional, tissue-based; details: Lymph node, dose 1-10 µM
CD8-positive T cell [12] = assay: Inhibition of CD3/CD28-activated CD8-positive T cell activation in BALB/c mouse lymph nodes assessed as decrease in TNF-alpha level at 1 to 10 uM incubated for 72 hrs by ELISA; type: functional, tissue-based; details: Lymph node, dose 1-10 µM
CTLL-2 [13] = assay: Induction of ferroptosis in mouse CTLL-2 cells assessed as decrease in GSH level incubated for 16 hrs; type: functional, cell-based; details: dose 7.5-30 µM
CTLL-2 [14] = assay: Induction of ferroptosis in mouse CTLL-2 cells assessed as increase in ROS level incubated for 16 hrs by DCFH-DA staining based flow cytometry; type: functional, cell-based; details: dose 7.5-30 µM
CTLL-2 [15] = assay: Induction of ferroptosis in mouse CTLL-2 cells assessed as increase in pERK level at 7.5 to 30 uM incubated for 16 hrs by Western blot analysis; type: functional, cell-based; details: dose 7.5-30 µM
CTLL-2 [16] = assay: Induction of ferroptosis in mouse CTLL-2 cells assessed as increase in intracellular Ca2+ concentration in presence of 2-APB/CM4620 by Fluo-4 AM dye based analysis; type: functional, cell-based
IEC-6 = assay: Induction of ferroptosis in rat IEC-6 cells assessed as increase in intracellular Ca2+ concentration at 10 uM by Fluo-4 AM dye based analysis; type: functional, cell-based

SMILES | Drug metabolism [1] | Drug metabolism [2] | Drug metabolism [3] | Stability [4] | Stability [5] | Stability [6] | Activity [7] | Activity (Mus musculus [8]) | Activity (Mus musculus [9]) | Activity (Mus musculus [10]) | inhibition (CD8-positive T cell [11]) | inhibition (CD8-positive T cell [12]) | Activity (CTLL-2 [13]) | Activity (CTLL-2 [14]) | Activity (CTLL-2 [15]) | Activity (CTLL-2 [16]) | Activity (IEC-6)
COC1=C[C@@H]2[C@@H]3Cc4c(COC(=O)/C=C/c5ccccc5)cc(OC)c(OC(=O)/C=C/c5ccccc5)c4[C@]2(CCN3C)CC1=O | metabolite_detected | metabolite_detected | metabolite_detected | Unstable | Unstable | Unstable |  |  |  |  |  |  |  |  |  |  | 
COC1=C[C@@H]2[C@@H]3Cc4c(CO)cc(OC)c(OC(=O)/C=C/c5ccccc5)c4[C@]2(CCN3C)CC1=O |  |  |  |  |  |  | Non-toxic | Active | Active | Active | Active | Active | Dose-dependent-effect | Dose-dependent-effect | Active | inactive | Not active; Elevation Was Smaller Than In Mouse Ctll-2 Cells
